The nature of one data set: CHI Log D procedure. It is filed as physicochemical. Particulars: pH 7.4.
A further data set in a line: Solubility in PBS. It is filed as physicochemical. In a few lines:
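HPLC quantitation of peptide remaining in the PBS supernatant after ultracentrifugation, referenced to a 50 μM solution in DMSO.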

Each structure is given as a SMILES string. Converted amounts (≈) assume the structure as drawn.

In general, Solubility refers to the dissolved amount per volume that the medium holds. The low end stands for a poorly soluble substance, the high end for a readily soluble substance.

Consider `CC(=O)N1CCC[C@]12CC=CCCCC1(CCCC=CCCCCCC[C@@](C)(C(=O)N[C@@H](Cc3ccccc3)C(=O)N[C@@H](Cc3csc4ccccc34)C(=O)N[C@@H](CCC(N)=O)C(N)=O)NC(=O)[C@H](C)NC(=O)[C@H](Cc3c[nH]cn3)NC(=O)[C@H](C)NC(=O)[C@H](C)NC(=O)[C@H](CC(=O)O)NC(=O)[C@H](CC(=O)O)NC1=O)NC(=O)[C@H](C)NC(=O)[C@H](CC(=O)O)NC2=O` (stereo partly drawn) [I-363, Ac-PL3-Asp-Ala-B5-Asp-Asp-Ala-Ala-His-Ala-S8-Phe-BztA-Gln-NH2], for which the “CHI Log D” value in “CHI Log D procedure” came to 2.09. For the same compound, in “Solubility in PBS”, the “Solubility” value was 32 µM (≈ 56.3 µg/mL).
For the compound `CC(=O)N1CCC[C@]12CC=CCCCC1(CCCC=CCCCCCC[C@@](C)(C(=O)N[C@@H](Cc3ccccc3)C(=O)N[C@@H](Cc3csc4ccccc34)C(=O)N[C@@H](CCC(N)=O)C(N)=O)NC(=O)[C@H](C)NC(=O)[C@H](Cc3c[nH]cn3)NC(=O)[C@H](C)NC(=O)[C@H](C)NC(=O)[C@H](CC(=O)O)NC(=O)[C@H](CC(=O)O)NC1=O)NC(=O)[C@H](C)NC(=O)[C@H](CC(=O)O)NC2=O` (stereo partly drawn) [I-364, Ac-PL3-Asp-Ala-B5-Asp-Asp-Ala-Ala-His-Ala-S8-Phe-BztA-Gln-NH2], in the data set “CHI Log D procedure”, the “CHI Log D” value amounted to 2.137. The “Solubility” value in the data set “Solubility in PBS” is 26 µM (≈ 45.8 µg/mL).
The corresponding values for `CC(=O)N1CCC[C@]12CC=CCCCC1(CCCC=CCCCCCC[C@@](C)(C(=O)N[C@@H](Cc3ccccn3)C(=O)N[C@@H](Cc3csc4ccccc34)C(=O)N[C@@H](CCC(N)=O)C(N)=O)NC(=O)[C@H](C(C)C)NC(=O)[C@H](Cc3ccccc3)NC(=O)[C@H](C)NC(=O)[C@H](C)NC(=O)[C@H](CCC(=O)O)NC(=O)[C@H](CC(=O)O)NC1=O)NC(=O)[C@H](C)NC(=O)[C@H](CC(=O)O)NC2=O` (stereo partly drawn) [I-383, Ac-PL3-Asp-Ala-B5-Asp-Glu-Ala-Ala-Phe-Val-S8-2pyrA-BztA-Gln-NH2] are 1.859 and 36 µM (≈ 65.3 µg/mL).
The corresponding values for `CC(=O)N1CCC[C@]12CC=CCCCC1(CCCC=CCCCCCC[C@@](C)(C(=O)N[C@@H](Cc3ccccc3)C(=O)N[C@@H](Cc3csc4ccccc34)C(=O)N[C@@H](CCC(N)=O)C(N)=O)NC(=O)[C@H](C(C)C)NC(=O)[C@H](Cc3ccccn3)NC(=O)[C@H](C)NC(=O)[C@H](C)NC(=O)[C@H](CCC(=O)O)NC(=O)[C@H](CC(=O)O)NC1=O)NC(=O)[C@H](C)NC(=O)[C@H](CC(=O)O)NC2=O` (stereo partly drawn) [I-386, Ac-PL3-Asp-Ala-B5-Asp-Glu-Ala-Ala-2pyrA-Val-S8-Phe-BztA-Gln-NH2] are 2.14 and 47 µM (≈ 85.2 µg/mL).
The like results for `CC(=O)N1CCC[C@]12CC=CCCCC1(CCCC=CCCCCCC[C@@](C)(C(=O)N[C@@H](Cc3cccc(F)c3F)C(=O)N[C@@H](Cc3csc4ccccc34)C(=O)N[C@@H](CCC(N)=O)C(N)=O)NC(=O)[C@H](C(C)C)NC(=O)[C@H](Cc3ccccc3)NC(=O)[C@H](C)NC(=O)[C@H](C)NC(=O)[C@H](CCC(=O)O)NC(=O)[C@H](CC(=O)O)NC1=O)NC(=O)[C@H](C)NC(=O)[C@H](CC(=O)O)NC2=O` (stereo partly drawn) [I-388, Ac-PL3-Asp-Ala-B5-Asp-Glu-Ala-Ala-Phe-Val-S8-23FF-BztA-Gln-NH2] were, in that order, 2.863 and 10 µM (≈ 18.5 µg/mL).
As to `CC(=O)N1CCC[C@]12CC=CCCCC1(CCCC=CCCCCCC[C@@](C)(C(=O)N[C@@H](Cc3cccc(F)c3F)C(=O)N[C@@H](Cc3csc4ccccc34)C(=O)N[C@@H](CCC(N)=O)C(N)=O)NC(=O)[C@H](C(C)C)NC(=O)[C@H](Cc3ccccc3)NC(=O)[C@H](C)NC(=O)[C@H](C)NC(=O)[C@H](CCC(=O)O)NC(=O)[C@H](CC(=O)O)NC1=O)NC(=O)[C@H](C)NC(=O)[C@H](CC(=O)O)NC2=O` (stereo partly drawn) [I-389, Ac-PL3-Asp-Ala-B5-Asp-Glu-Ala-Ala-Phe-Val-S8-23FF-BztA-Gln-NH2], the “CHI Log D” value in the data set “CHI Log D procedure” amounted to 2.868. The “Solubility” value in “Solubility in PBS” was 17 µM (≈ 31.4 µg/mL).

Source of the values: patent publication US20240116985A1, “STAPLED PEPTIDES AND METHODS THEREOF” (priority 2020, published 2024).
